Where a name gives a salt, the structure may show the parent alone.
What was measured:
[1] = target: T1, NK1 receptor (substance P receptor) (Homo sapiens, UniProt P25103); assay: NK1 receptor affinity, displacement of 125I-labelled substance P on IM-9 cells; type: binding; details: human lymphoblastoma cells (IM-9) with cloned NK1 receptors
T1 construct: expressed in transfected cells; host or cells: human lymphoblastoma cells (IM-9)
Method: Results of investigations into the compound according to the invention: The receptor affinity for the NK1 receptor (substance P receptor) is determined on human lymphoblastoma cells (IM-9) with cloned NK1 receptors, by measuring the displacement of ^125I-labelled substance P. The Ki values thus obtained show the efficacy of the compounds.

T1 sequence (P25103 whole entry): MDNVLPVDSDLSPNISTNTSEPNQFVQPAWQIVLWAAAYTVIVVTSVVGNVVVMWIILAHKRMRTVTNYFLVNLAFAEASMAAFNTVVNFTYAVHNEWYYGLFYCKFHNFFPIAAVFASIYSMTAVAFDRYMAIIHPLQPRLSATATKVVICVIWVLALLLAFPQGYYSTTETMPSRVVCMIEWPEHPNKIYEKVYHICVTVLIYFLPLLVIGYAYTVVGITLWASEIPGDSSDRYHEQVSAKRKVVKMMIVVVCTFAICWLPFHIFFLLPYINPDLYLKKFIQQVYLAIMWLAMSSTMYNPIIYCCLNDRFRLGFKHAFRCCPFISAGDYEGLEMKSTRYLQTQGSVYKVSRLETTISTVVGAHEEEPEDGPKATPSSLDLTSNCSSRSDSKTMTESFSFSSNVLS

Compound	Ki [1] [nM]	melting point
CN(CCc1cc(C(F)(F)F)cc(C(F)(F)F)c1)C(=O)C(c1ccccc1)N1CCN(/C(=N\C2CCCCC2)NC2CCCCC2)CC1 (centres unmarked) [Example 7]	1.45	182 to 188 °C (dec.)
CN(CC(c1ccc(Cl)c(Cl)c1)N1CCN(C(=N)N)CC1)C(=O)Cc1cc(C(F)(F)F)cc(C(F)(F)F)c1 (centres unmarked) [Example 35]	0.78	–
CN(CCc1cc(C(F)(F)F)cc(C(F)(F)F)c1)C(=O)C(c1ccccc1)N1CCN(/C(=N/C(=O)c2ccccc2)NCc2ccccc2)CC1 (centres unmarked) [Example 33]	13.2	–
Cc1ccc(/N=C(\Nc2ccc(C)cc2)N2CCN(C(C(=O)N(C)CCc3cc(C(F)(F)F)cc(C(F)(F)F)c3)c3ccccc3)CC2)cc1 (centres unmarked) [Example 28]	4.16	–
CN(CCc1cc(C(F)(F)F)cc(C(F)(F)F)c1)C(=O)C(c1ccccc1)N1CCN(/C(=N\C2CCCCC2)N(C)C2CCCCC2)CC1 (centres unmarked) [Example 6]	0.88	–
CN(CCc1cc(C(F)(F)F)cc(C(F)(F)F)c1)C(=O)[C@H](c1ccccc1)N1CCN(/C(=N/C(=O)c2ccccc2)N(C)C)CC1.Cl [Example 27]	1.11	124 to 128 °C
CC(C)/N=C(/NC(C)C)N1CCN(C(C(=O)N(C)CCc2cc(C(F)(F)F)cc(C(F)(F)F)c2)c2ccccc2)CC1 (racemic) [Example 4]	0.53	176 to 186 °C (dec.)
CN(CCc1cc(C(F)(F)F)cc(C(F)(F)F)c1)C(=O)C(c1ccccc1)N1CCN(C(=N)N)CC1 (racemic) [Example 1, (R,S)-1-Amidino-4-[2-phenylacetic acid-N-methyl-N-(3,5-bis-trifluoromethyl-phenyl-ethyl)-amide]-piperazine, dihydrochloride]	0.45	–
CCN/C(=N/C(C)(C)C)N1CCN(C(C(=O)N(C)CCc2cc(C(F)(F)F)cc(C(F)(F)F)c2)c2ccccc2)CC1 (centres unmarked) [Example 5]	6.28	174 to 184 °C (dec.)
CC(C)N/C(=N\C(=O)c1ccccc1)N1CCN(C(C(=O)N(C)CCc2cc(C(F)(F)F)cc(C(F)(F)F)c2)c2ccccc2)CC1 (centres unmarked) [Example 31]	8.96	–
CN(CCc1cc(C(F)(F)F)cc(C(F)(F)F)c1)C(=O)[C@H](c1ccccc1)N1CCN(/C(=N/C(=O)c2ccccc2)Nc2ccccc2)CC1 [Example 29]	0.87	–
CN(CCc1cc(C(F)(F)F)cc(C(F)(F)F)c1)C(=O)C(c1ccccc1)N1CCN(C(=N)N)CC1 (racemic) (as salt: hydrochloride) [Example 1, (R,S)-1-Amidino-4-[2-phenylacetic acid-N-methyl-N-(3,5-bis-trifluoromethyl-phenyl-ethyl)-amide]-piperazine, dihydrochloride]	–	128 to 138 °C

Further lines, results first:

Ki [1] [nM]	melting point	Compound
0.37	–	CN(CCc1cc(C(F)(F)F)cc(C(F)(F)F)c1)C(=O)C(c1ccccc1)N1CCN(/C(N)=N/Cc2ccccc2)CC1 (centres unmarked) [Example 34]
0.19	–	CN(CCc1cc(C(F)(F)F)cc(C(F)(F)F)c1)C(=O)[C@H](c1ccccc1)N1CCN(C2=NCCN2C)CC1 [Example 8]
0.2	69 to 79 °C	CNC(=N)N1CCN(C(C(=O)N(C)CCc2cc(C(F)(F)F)cc(C(F)(F)F)c2)c2ccccc2)CC1 (centres unmarked) [Example 3]
0.3	163 to 173 °C	CN(CCc1cc(C(F)(F)F)cc(C(F)(F)F)c1)C(=O)C(c1ccccc1)N1CCN(C2=NCCN2)CC1 (centres unmarked) [Example 2]
0.32	240 to 245 °C (dec.)	CN(CCc1cc(C(F)(F)F)cc(C(F)(F)F)c1)C(=O)C(c1ccccc1)N1CCN(C(=N)Nc2ccccc2)CC1 (centres unmarked) [Example 12]
0.2	–	CC(C)NC(=N)N1CCN(C(C(=O)N(C)CCc2cc(C(F)(F)F)cc(C(F)(F)F)c2)c2ccccc2)CC1 (centres unmarked) [Example 32]
0.12	–	CN(C)C(=N)N1CCN(C(C(=O)N(C)CCc2cc(C(F)(F)F)cc(C(F)(F)F)c2)c2ccccc2)CC1 (centres unmarked) [Example 10]
0.14	126 to 140 °C	C/N=C(\NC)N1CCN(C(C(=O)N(C)CCc2cc(C(F)(F)F)cc(C(F)(F)F)c2)c2ccccc2)CC1 (centres unmarked) [Example 9]
0.17	–	CN(CCc1cc(C(F)(F)F)cc(C(F)(F)F)c1)C(=O)C(c1ccccc1)N1CCN(C(=N)N2CCOCC2)CC1 (centres unmarked) [Example 30]

From patent publication US6455700B1, “Process for preparing guanidine and amidine derivatives” (Boehringer Ingelheim Pharma KG., priority 1998, dated 2002)
